# Measured values published in ChEMBL document CHEMBL2440076, “New triarylpyrazoles as broad-spectrum anticancer agents: design, synthesis, and biological evaluation” (Eur J Med Chem, 2013).
# What was measured:
# Assay type in all cases: functional
# [1] = Growth inhibition of human HCC2998 cells assessed as cell growth at 5X10'-9 M after 48 hrs by sulforhodamine B assay; settings: HCC 2998, 48 h, read-out: Activity
# SNB-19 = assay: Growth inhibition of human SNB19 cells assessed as cell growth at 5X10'-5 M after 48 hrs by sulforhodamine B assay; settings: SNB-19, 48 h, read-out: Activity
# [2] = Growth inhibition of human HCC2998 cells assessed as cell growth at 5X10'-5 M after 48 hrs by sulforhodamine B assay; settings: HCC 2998, 48 h, read-out: Activity
# HOP-92 = assay: Growth inhibition of human HOP92 cells assessed as cell growth at 5X10'-5 M after 48 hrs by sulforhodamine B assay; settings: HOP-92, 48 h, read-out: Activity
# K562 = assay: Growth inhibition of human K562 cells assessed as cell growth at 5X10'-5 M after 48 hrs by sulforhodamine B assay; settings: K562, 48 h, read-out: Activity
# CCRF-CEM [3] = assay: Growth inhibition of human CCRF-CEM cells assessed as cell growth at 5X10'-5 M after 48 hrs by sulforhodamine B assay; settings: read-out: Activity
# BT-549 = assay: Growth inhibition of human BT549 cells assessed as cell growth at 5X10'-6 M after 48 hrs by sulforhodamine B assay; settings: BT-549, 48 h, read-out: Activity
# PC-3 = assay: Growth inhibition of human PC3 cells assessed as cell growth at 5X10'-6 M after 48 hrs by sulforhodamine B assay; settings: PC-3, 48 h, read-out: Activity
# SN12C = assay: Growth inhibition of human SN12C cells assessed as cell growth at 5X10'-6 M after 48 hrs by sulforhodamine B assay; settings: read-out: Activity
# OVCAR-8 = assay: Growth inhibition of human OVCAR8 cells assessed as cell growth at 5X10'-6 M after 48 hrs by sulforhodamine B assay; settings: OVCAR-8, 48 h, read-out: Activity
# UACC-257 = assay: Growth inhibition of human UACC257 cells assessed as cell growth at 5X10'-6 M after 48 hrs by sulforhodamine B assay; settings: UACC-257, 48 h, read-out: Activity
# RPMI-8226 = assay: Growth inhibition of human RPMI8226 cells assessed as cell growth at 5X10'-9 M after 48 hrs by sulforhodamine B assay; settings: RPMI-8226, 48 h, read-out: Activity
# SF-268 [4] = assay: Growth inhibition of human SF268 cells assessed as cell growth at 5X10'-6 M after 48 hrs by sulforhodamine B assay; settings: SF-268, 48 h, read-out: Activity
# [5] = Growth inhibition of human Hs 578T cells assessed as cell growth at 5X10'-7 M after 48 hrs by sulforhodamine B assay; settings: read-out: Activity
# TK-10 = assay: Growth inhibition of human TK10 cells assessed as cell growth at 5X10'-7 M after 48 hrs by sulforhodamine B assay; settings: TK-10, 48 h, read-out: Activity
# OVCAR-4 = assay: Growth inhibition of human OVCAR4 cells assessed as cell growth at 5X10'-7 M after 48 hrs by sulforhodamine B assay; settings: OVCAR-4, 48 h, read-out: Activity
# SF-268 [6] = assay: Growth inhibition of human SF268 cells assessed as cell growth at 5X10'-7 M after 48 hrs by sulforhodamine B assay; settings: SF-268, 48 h, read-out: Activity
# [7] = Growth inhibition of human HCC2998 cells assessed as cell growth at 5X10'-7 M after 48 hrs by sulforhodamine B assay; settings: HCC 2998, 48 h, read-out: Activity
# COLO 205 [8] = assay: Growth inhibition of human COLO205 cells assessed as cell growth at 5X10'-7 M after 48 hrs by sulforhodamine B assay; settings: COLO 205, 48 h, read-out: Activity
# SR = assay: Growth inhibition of human SR cells assessed as cell growth at 5X10'-7 M after 48 hrs by sulforhodamine B assay; settings: read-out: Activity
# CCRF-CEM [9] = assay: Growth inhibition of human CCRF-CEM cells assessed as cell growth at 5X10'-7 M after 48 hrs by sulforhodamine B assay; settings: read-out: Activity
# MDA-MB-468 = assay: Growth inhibition of human MDA-MB-468 cells assessed as cell growth at 5X10'-8 M after 48 hrs by sulforhodamine B assay; settings: MDA-MB-468, 48 h, read-out: Activity
# A498 = assay: Growth inhibition of human A498 cells assessed as cell growth at 5X10'-8 M after 48 hrs by sulforhodamine B assay; settings: A498, 48 h, read-out: Activity
# SK-MEL-5 = assay: Growth inhibition of human SK-MEL-5 cells assessed as cell growth at 5X10'-8 M after 48 hrs by sulforhodamine B assay; settings: SK-MEL-5, 48 h, read-out: Activity
# MDA-MB-435 = assay: Growth inhibition of human MDA-MB-435 cells assessed as cell growth at 5X10'-8 M after 48 hrs by sulforhodamine B assay; settings: MDA-MB-435, 48 h, read-out: Activity
# SNB-75 = assay: Growth inhibition of human SNB75 cells assessed as cell growth at 5X10'-8 M after 48 hrs by sulforhodamine B assay; settings: SNB-75, 48 h, read-out: Activity
# SF-295 = assay: Growth inhibition of human SF295 cells assessed as cell growth at 5X10'-8 M after 48 hrs by sulforhodamine B assay; settings: SF-295, 48 h, read-out: Activity
# RXF 393 = assay: Growth inhibition of human RXF393 cells assessed as cell growth at 5X10'-5 M after 48 hrs by sulforhodamine B assay; settings: RXF 393, 48 h, read-out: Activity
# CAKI-1 [10] = assay: Growth inhibition of human CAKI-1 cells assessed as cell growth at 5X10'-5 M after 48 hrs by sulforhodamine B assay; settings: CAKI-1, 48 h, read-out: Activity
# OVCAR-5 = assay: Growth inhibition of human OVCAR5 cells assessed as cell growth at 5X10'-5 M after 48 hrs by sulforhodamine B assay; settings: OVCAR-5, 48 h, read-out: Activity
# IGROV-1 = assay: Growth inhibition of human IGROV1 cells assessed as cell growth at 5X10'-5 M after 48 hrs by sulforhodamine B assay; settings: IGROV-1, 48 h, read-out: Activity
# COLO 205 [11] = assay: Growth inhibition of human COLO205 cells assessed as cell growth at 5X10'-8 M after 48 hrs by sulforhodamine B assay; settings: COLO 205, 48 h, read-out: Activity
# NCI-H226 = assay: Growth inhibition of human NCI-H226 cells assessed as cell growth at 5X10'-8 M after 48 hrs by sulforhodamine B assay; settings: NCI-H226, 48 h, read-out: Activity
# CAKI-1 [12] = assay: Growth inhibition of human CAKI-1 cells assessed as cell growth at 5X10'-9 M after 48 hrs by sulforhodamine B assay; settings: CAKI-1, 48 h, read-out: Activity
# M14 = assay: Growth inhibition of human M14 cells assessed as cell growth at 5X10'-9 M after 48 hrs by sulforhodamine B assay; settings: M14, 48 h, read-out: Activity
# SF-539 = assay: Growth inhibition of human SF539 cells assessed as cell growth at 5X10'-9 M after 48 hrs by sulforhodamine B assay; settings: SF-539, 48 h, read-out: Activity
SMILES,growth at 0.005 µM [1] [%],growth at 50 µM (SNB-19) [%],growth at 50 µM [2] [%],growth at 50 µM (HOP-92) [%],growth at 50 µM (K562) [%],growth at 50 µM (CCRF-CEM [3]) [%],growth at 5 µM (BT-549) [%],growth at 5 µM (PC-3) [%],growth at 5 µM (SN12C) [%],growth at 5 µM (OVCAR-8) [%],growth at 5 µM (UACC-257) [%],growth at 0.005 µM (RPMI-8226) [%],growth at 5 µM (SF-268 [4]) [%],growth at 0.5 µM [5] [%],growth at 0.5 µM (TK-10) [%],growth at 0.5 µM (OVCAR-4) [%],growth at 0.5 µM (SF-268 [6]) [%],growth at 0.5 µM [7] [%],growth at 0.5 µM (COLO 205 [8]) [%],growth at 0.5 µM (SR) [%],other results
COc1cc(-c2nn(-c3cccc(NC(=O)Nc4cccc(C(F)(F)F)c4)c3)cc2-c2ccncc2)ccc1Cl,100,-18,-79,-45,1,3,-12,-19,12,-24,-42,98,1,80,79,73,87,94,93,75,growth at 0.5 µM (CCRF-CEM [9]): 69%; growth at 0.05 µM (MDA-MB-468): 92%; growth at 0.05 µM (A498): 87%; growth at 0.05 µM (SK-MEL-5): 95%; growth at 0.05 µM (MDA-MB-435): 97%; growth at 0.05 µM (SNB-75): 95%; growth at 0.05 µM (SF-295): 91%; growth at 50 µM (RXF 393): -53%; growth at 50 µM (CAKI-1 [10]): -21%; growth at 50 µM (OVCAR-5): -43%; growth at 50 µM (IGROV-1): -43%; growth at 0.05 µM (COLO 205 [11]): 98%; growth at 0.05 µM (NCI-H226): 96%; growth at 0.005 µM (CAKI-1 [12]): 94%; growth at 0.005 µM (M14): 96%; growth at 0.005 µM (SF-539): 95%
COc1cc(-c2nn(-c3cccc(NC(=O)Nc4cc(C(F)(F)F)cc(C(F)(F)F)c4)c3)cc2-c2ccncc2)ccc1Cl,102,-40,-88,-72,-16,-8,-27,-20,-16,-6,-40,99,-40,79,78,73,87,95,93,80,growth at 0.5 µM (CCRF-CEM [9]): 50%; growth at 0.05 µM (MDA-MB-468): 85%; growth at 0.05 µM (A498): 82%; growth at 0.05 µM (SK-MEL-5): 95%; growth at 0.05 µM (MDA-MB-435): 98%; growth at 0.05 µM (SNB-75): 90%; growth at 0.05 µM (SF-295): 94%; growth at 50 µM (RXF 393): -65%; growth at 50 µM (CAKI-1 [10]): -50%; growth at 50 µM (OVCAR-5): -72%; growth at 50 µM (IGROV-1): -54%; growth at 0.05 µM (COLO 205 [11]): 102%; growth at 0.05 µM (NCI-H226): 90%; growth at 0.005 µM (CAKI-1 [12]): 95%; growth at 0.005 µM (M14): 105%; growth at 0.005 µM (SF-539): 88%
